Experimental data reported in ChEMBL document CHEMBL1147673, “NO-donor phenols: a new class of products endowed with antioxidant and vasodilator properties” (J Med Chem, 2006).

Tested on: Radical scavenging activity
Assay: Antioxidant activity assessed as inhibition of TBARS production in ferrous salt/ascorbate-induced lipid peroxidation in Wistar rat liver microsomal membrane
Format: functional, microsomes
Conditions: not given; call rule not given here

SMILES	IC50
Cc1c(C)c2c(c(C)c1O)CCC(C)(C)O2 [APC-100]	170 nM
COc1cc(C)cc(OC)c1O	18000 nM
CC(C)(C)c1cc(CCCO[N+](=O)[O-])cc(C(C)(C)C)c1O	2000 nM
Cc1ccc(O)cc1 [p-CRESOL]	290000 nM
O=[N+]([O-])OCC(Cc1ccc(O)cc1)[N+](=O)[O-] (stereo unspecified)	185000 nM
COc1cc(CC(CO[N+](=O)[O-])[N+](=O)[O-])cc(OC)c1O (stereo unspecified)	5400 nM
Cc1c(C)c2c(c(C)c1O)CCC(C)(COCCCO[N+](=O)[O-])O2 (stereo unspecified)	150 nM
CN(CCCc1cc(C(C)(C)C)c(O)c(C(C)(C)C)c1)Cc1no[n+]([O-])c1C(N)=O	1200 nM
COc1cc(CCCOc2no[n+]([O-])c2S(=O)(=O)c2ccccc2)cc(OC)c1O	3400 nM
CC(C)(C)c1cc(CC(CO[N+](=O)[O-])[N+](=O)[O-])cc(C(C)(C)C)c1O (stereo unspecified)	2600 nM
O=[N+]([O-])OCCCc1ccc(O)cc1	143000 nM
COc1cc(CCCO[N+](=O)[O-])cc(OC)c1O	5900 nM
Cc1cc(C(C)(C)C)c(O)c(C(C)(C)C)c1 [BUTYLATED HYDROXYTOLUENE]	1700 nM
CC(C)(C)c1cc(CCCOc2no[n+]([O-])c2S(=O)(=O)c2ccccc2)cc(C(C)(C)C)c1O	2000 nM
Cc1c(C)c2c(c(C)c1O)CCC(C)(COc1no[n+]([O-])c1S(=O)(=O)c1ccccc1)O2 (stereo unspecified)	490 nM
Cc1c(C)c2c(c(C)c1O)CCC(C)(CN(C)Cc1no[n+]([O-])c1C(N)=O)O2 (stereo unspecified)	140 nM
CCOc1no[n+]([O-])c1S(=O)(=O)c1ccccc1	110000 nM
O=S(=O)(c1ccccc1)c1c(OCCCc2ccc(O)cc2)no[n+]1[O-]	47000 nM

Target: T1, Alpha-1D adrenergic receptor (Rattus norvegicus) (UniProt P23944)
T1 sequence (whole entry): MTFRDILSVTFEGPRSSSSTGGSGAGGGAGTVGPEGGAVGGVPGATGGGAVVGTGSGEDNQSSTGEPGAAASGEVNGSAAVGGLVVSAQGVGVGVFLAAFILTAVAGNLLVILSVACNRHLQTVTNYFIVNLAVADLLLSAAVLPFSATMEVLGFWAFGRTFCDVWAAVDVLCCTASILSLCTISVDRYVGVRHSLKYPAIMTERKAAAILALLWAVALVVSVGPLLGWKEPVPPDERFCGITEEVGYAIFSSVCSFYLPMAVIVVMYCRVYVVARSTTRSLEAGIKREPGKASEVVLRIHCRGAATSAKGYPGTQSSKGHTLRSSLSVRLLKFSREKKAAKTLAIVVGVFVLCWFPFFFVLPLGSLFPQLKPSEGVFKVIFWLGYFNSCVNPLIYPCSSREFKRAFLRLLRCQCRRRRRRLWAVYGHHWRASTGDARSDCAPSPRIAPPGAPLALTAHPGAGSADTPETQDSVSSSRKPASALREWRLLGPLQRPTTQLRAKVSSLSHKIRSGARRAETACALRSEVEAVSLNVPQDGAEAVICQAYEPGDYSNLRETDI
Assay: Vasodilator activity assessed as ability to relax phenylephrine-induced contraction of Wistar rat aortic strips at 30 uM in presence of 1 uM ODQ
Format: functional, tissue-based
Design: scale not given: the % may be the effect or the level left
Conditions: Aorta

SMILES	Activity
CC(C)(C)c1cc(CC(CO[N+](=O)[O-])[N+](=O)[O-])cc(C(C)(C)C)c1O (stereo unspecified)	24%

Tested on: Radical scavenging activity
Assay: Antioxidant activity assessed as inhibition of TBARS production in ferrous salt/ascorbate-induced lipid peroxidation in Wistar rat liver microsomal membrane at 1 mM
Format: functional, microsomes
Conditions: not given

SMILES	IC50
CN(C)Cc1no[n+]([O-])c1C(N)=O	Not Active
NC(=O)c1c(CO)no[n+]1[O-]	Not Active
